Experimental data from patent US20050058745A1, “Use of Labiatae herb preparations for extending the flavor shelf life of malt beverages” (priority 2003, published 2005).
Entries after “also recorded” stand apart in the source; their conditions may differ.

Experiments:
[1] = Trained panel flavor evaluation, commercial Pilsener, forced aging
Description: Separate solutions containing 2% pure rosmarinic acid or pure carnosic acid were prepared by weighing out 500 mg of each compound into separate volumetric flasks and diluting to 25 mL with 100% EtOH.
The beer used in this study was purchased at a local market with a production date of 36 days prior to use. Bottle additions were done as follows: • 1. A bottle of the beer was opened, struck sharply on the top to induce foaming (called “fobbing”), and crowned. The fobbing excludes air. The bottle was swirled and inverted. This sample was designated “No Additions.” • 2. Bottles of beer were opened and an aliquot of either the rosmarinic acid or carnosic acid solutions or a combination of each was added in an amount to give the correct addition rate. The bottle was then fobbed, as above and crowned. It was then swirled and inverted. The samples were designated appropriately to reflect the additive and concentration.
The bottles were placed in a heated room at 40±1° C. in the dark for varying amounts of time. After the allotted aging time, the bottles of beer were transferred to a dark refrigerator and stored at approximately 2° to 4° C. until they were analyzed. Additional bottles from the same code were kept unopened in 2° to 4° C. storage. These unopened samples from the same beer code were labeled “Fresh Control” used to provide fresh samples for the trained panel.
At the appropriate times, a trained 7- or 8-member panel evaluated the beers. In the first study panels, the fresh sample was not identified. Members rated beers for nine attributes that are characteristic for beer: Malt, Yeast, Estery, Hops, Sweet, Stale/Oxidized, Sour/Acid, Solvent (Chemical), and Bitterness. The panel never evaluated more than four beers at a session. The ratings are shown below.

[2] = Scaling sensory panel for staling, model citrus beverage; conditions: for Panelist staling Average (0 fresh, 10 most stale): 50 ppm (RA/CA: 50 ppm each)
Description: Carbon filtered water was carbonated to 3.5 to 4 times the volume of beer. 59.2 ml of syrup was added to each 355 ml bottle. Each bottle was individually dosed with the treatments listed in Table 22 by adding 1.775 mL of a 1% (weight/volume) solution of carnosol or rosmarinic acid in ethanol to give 50 ppm of each. The bottle was filled to approximately 355 ml with carbonated water before it was capped and inverted. Fresh samples were stored in the refrigerator (0° C.). Heat exposed samples were aged in the oven (32° C.) for seven days. The sensory data were taken in the following manner. Each sample (controls and treatments) was presented to the panelists one time. Panelists rated the beers on a scale of 0-10, with 0 being fresh and 10 being most stale. Panelists were given examples of a fresh and stale material prior to the panel for training on these characteristics. Since the output of the panel as a whole was desired, and not any one individual panelist, the means of each treatment sample in each replicate groups were calculated and tabulated as in Table 24. […] These diluted samples best represent the loss in flavor that occurs when the sample is thermally aged. […] Statistical analysis consisted of doing paired t-Tests on the treatment sample vs. the aged control sample (Table 25). One-tailed tests were used that probed the question whether the […] values of one treatment were lower than that of the other (e.g treatment vs. control). Confidence levels were reported along with p values.

[3] = Flavor stability of flavored malt beverage; conditions: 10 ppm CA and 5 ppm CN; 10 ppm RA
Description: To a flavored malt beverage 10 ppm CA and 5 ppm CN, is added, and the beverage aged. To the same beverage, 10 ppm RA is added. […] When RA is added to the CA and or CN, an improvement is observed.

[4] = Stability of RA in 9.5% tetrahydroisohumulone solution at pH 8; assay type: physicochemical; conditions: pH 8, room temperature
Description: A solution of rosmarinic acid in 9.5% tetrahydroisohumulone at pH 8 was prepared and allowed to stand at room temperature for an extended period of time to determine stability.

Row | flavor stabilization in model citrus beverage ([2]; scaling study of staling) | flavor stability of aged flavored malt beverage [3] | % Rosmarinic Acid in Solution ([4]; 0 days) [%] | % Rosmarinic Acid in Solution ([4]; 3 days) [%] | % Rosmarinic Acid in Solution ([4]; 5 days) [%] | % Rosmarinic Acid in Solution ([4]; 15 days) [%] | % Rosmarinic Acid in Solution ([4]; 38 days) [%] | % Rosmarinic Acid in Solution ([4]; 54 days) [%] | % Rosmarinic Acid in Solution ([4]; 86 days) [%] | Structure (SMILES) | ranking (normalized sum of preference, 1 most preferred, 4 least preferred) ([1]; 5 ppm CA, 1 week 40° C.) | ranking (normalized sum of preference, 1 most preferred, 4 least preferred) ([1]; 10 ppm CA, 1 week 40° C.) | ranking (normalized sum of preference, 1 most preferred, 4 least preferred) ([1]; 20 ppm CA, 1 week 40° C.) | ranking (normalized sum of preference, 1 most preferred, 4 least preferred) ([1]; 20 ppm CA, 2 weeks 40° C.) | Panelist staling Average (0 fresh, 10 most stale) ([2]; Aged (32° C., seven days)) | Panelist staling Average (0 fresh, 10 most stale) ([2]; Fresh) | stability in hop acid solution [4]
1 | – | – | – | – | – | – | – | – | – | CC(C)c1cc2c(c(O)c1O)[C@@]1(C(=O)O)CCCC(C)(C)[C@@H]1CC2 [CA, carnosic acid] | 2.6 | 2.4 | 2.3 | 2.1 | – | – | –
2 | not an effect flavor stabilizer | only slightly better than the control | 12.07 | 12.45 | 12.40 | 12.12 | 11.36 | 11.74 | 10.88 | O=C(/C=C/c1ccc(O)c(O)c1)O[C@H](Cc1ccc(O)c(O)c1)C(=O)O [RA, rosmarinic acid] | – | – | – | – | 6.17 | 0.67 | stable in this formulation for at least three months; also recorded: very stable in the hop acid solution
